# Earlier results as cited in patent US20140106406A1, “GENE CLUSTER FOR THE PRODUCTION OF GOUGEROTIN, GOUGEROTIN ANALOGUES, AND PRECURSORS THEREOF” (Bayer Cropscience LP, priority 2012, published 2014).
# How the values were obtained:
# powdery mildew = settings: against powdery mildew
# [1] = tested on: parasites on animals, such as pin worm
# [2] = tested on: gram-positive, gram-negative bacteria and tubercule bacillus
smiles,measurement,setting,value
NC(N)=NCC(O)CC(O)(C(=O)O)[C@H]1O[C@@H](n2cc(CO)c(N)nc2=O)C=C[C@@H]1NC(=O)[C@@H](N)CO (stereo partly drawn) [antibiotic B-98891],antifungal activity,powdery mildew,antifungal activity
CNCC(=O)NC(CO)C(=O)NC1C(C(N)=O)OC(n2ccc(N)nc2=O)C(O)C1O (stereo not drawn) [gougerotin],parasiticidal action,[1],parasiticidal action
same,antibacterial activity,[2],weak antibacterial activity
